Holding throughout (format): cell-based
In test [1] the target is T1, vanilloid receptor 1 (VR1/TRPV1) of the rat species (Rattus norvegicus, UniProt O35433).
T1 construct: The spinal column is removed from decapitated rats; from tissue; host or cells: primary cells dissociated from rat dorsal root ganglia
The test is described as follows: FLIPR Ca2+ influx assay on rat dorsal root ganglia cells (pharmacological method I). The note with it: table 4; capsaicin; read-out: Ki (rat) Cap. The source says: I. Functional Investigation of the Vanilloid Receptor 1 (VR1/TRPV1 Receptor)
The agonistic or antagonistic action of the substances to be investigated on the vanilloid receptor 1 (VR1/TRPV1) of the rat species may be determined by the following assay. According to this assay, the influx of Ca^2+ through the receptor channel is quantified with the assistance of a Ca^2+-sensitive dye (type Fluo-4, Molecular Probes Europe BV, Leiden, Netherlands) in a Fluorescent Imaging Plate Reader (FLIPR, Molecular Devices, Sunnyvale, USA).
The spinal column is removed from decapitated rats and is placed directly in cold, i.e. located in an ice bath, HBSS buffer (Hank's buffered saline solution, Gibco Invitrogen GmbH, Karlsruhe, Germany) combined with 1 vol. % (percent by volume) of an AA solution (antibiotic/antimycotic solution, PAA, Pasching, Austria). The spinal column is cut open longitudinally and removed together with fasciae from the spinal canal. The dorsal root ganglia (DRGs) are then removed and in turn stored in cold HBSS buffer combined with 1 vol. % of an AA solution. The DRGs, from which all traces of blood and spinal nerves have been removed, are in each case transferred into 500 μL of cold collagenase type 2 (PAA, Pasching, Austria) and incubated for 35 minutes at 37° C. […] Once incubation is complete, the enzyme solution is carefully removed by pipette and the DRGs, which are left behind, are in each case combined with 500 μL of complete medium.
The DRGs are in each case repeatedly suspended, drawn by means of a syringe through […], no. 12 and no. 16 cannulas and transferred into 50 mL Falcon microtubes and each tube is made up to 15 mL with complete medium. The contents of each Falcon microtube are in each case filtered through a 70 μm Falcon filter insert and centrifuged for 10 minutes at 1200 revolutions and room temperature. The resultant pellet is in each case resuspended in 250 μL of complete medium and the cell count determined.
The number of cells in the suspension is adjusted to 3×10^5 per mL and a 150 μL portion of this suspension is in each case placed in a well of the cell culture plate which has been coated as described above.
The cells are then loaded with 2 μM Fluo-4 and 0.01 vol. % Pluronic F127 (Molecular Probes Europe BV, Leiden, Netherlands) in HBSS buffer (Hank's buffered saline solution, Gibco Invitrogen GmbH, Karlsruhe, Germany) for 30 min at 37° C., washed 3× with HBSS buffer and, after a further 15 minutes' incubation at room temperature, used for Ca^2+ measurement in the FLIPR assay. […] Quantification proceeds by measuring the highest fluorescence intensity (FC, fluorescence counts) over time.
The FLIPR protocol comprises 2 additions of substance. The compounds to be tested (10 μM) are firstly pipetted onto the cells and Ca^2+ influx is compared with the control (capsaicin 10 μM). This provides the percentage activation relative to the Ca^2+ signal after addition of 10 μM of capsaicin (CP). After 5 minutes' incubation, 100 nM of capsaicin are added and the influx of Ca^2+ is again determined.
Desensitising agonists and antagonists result in suppression of Ca^2+ influx. The percentage inhibition in comparison with the maximum achievable inhibition with 10 μM capsaicin is calculated.
Triplicate determinations (n═3) are performed and these are repeated in at least 3 independent experiments […].

Another test concerns the target T2, vanilloid receptor (VR1) (Homo sapiens, UniProt Q8NER1).
T2 construct: expressed in transfected cells; host or cells: CHO K1 cells (ECACC), stably transfected
The test is described as follows: FLIPR Ca2+ influx assay on CHO K1 cells transfected with the VR1 gene (pharmacological method II). To be noted: table 4; capsaicin; read-out: Ki (human) Cap.

The target of the next test is VR1/TRPV1 receptor (Homo sapiens, UniProt Q8NER1). The test can be described thus: IC50 (human) after pH stimulus. The note with it: for inhibition at 1 µM: ne = no effect; for IC50: table 4.
The mark [2] stands for this setting: read-out: inhibition in percent, IC50 (human) after pH stimulus.

Data on ten compounds can be found in patent US8710233B2 (Gruenenthal GmbH, priority 2005, dated 2014).

SMILES strings stand for the structures.

T1 sequence (O35433 whole entry): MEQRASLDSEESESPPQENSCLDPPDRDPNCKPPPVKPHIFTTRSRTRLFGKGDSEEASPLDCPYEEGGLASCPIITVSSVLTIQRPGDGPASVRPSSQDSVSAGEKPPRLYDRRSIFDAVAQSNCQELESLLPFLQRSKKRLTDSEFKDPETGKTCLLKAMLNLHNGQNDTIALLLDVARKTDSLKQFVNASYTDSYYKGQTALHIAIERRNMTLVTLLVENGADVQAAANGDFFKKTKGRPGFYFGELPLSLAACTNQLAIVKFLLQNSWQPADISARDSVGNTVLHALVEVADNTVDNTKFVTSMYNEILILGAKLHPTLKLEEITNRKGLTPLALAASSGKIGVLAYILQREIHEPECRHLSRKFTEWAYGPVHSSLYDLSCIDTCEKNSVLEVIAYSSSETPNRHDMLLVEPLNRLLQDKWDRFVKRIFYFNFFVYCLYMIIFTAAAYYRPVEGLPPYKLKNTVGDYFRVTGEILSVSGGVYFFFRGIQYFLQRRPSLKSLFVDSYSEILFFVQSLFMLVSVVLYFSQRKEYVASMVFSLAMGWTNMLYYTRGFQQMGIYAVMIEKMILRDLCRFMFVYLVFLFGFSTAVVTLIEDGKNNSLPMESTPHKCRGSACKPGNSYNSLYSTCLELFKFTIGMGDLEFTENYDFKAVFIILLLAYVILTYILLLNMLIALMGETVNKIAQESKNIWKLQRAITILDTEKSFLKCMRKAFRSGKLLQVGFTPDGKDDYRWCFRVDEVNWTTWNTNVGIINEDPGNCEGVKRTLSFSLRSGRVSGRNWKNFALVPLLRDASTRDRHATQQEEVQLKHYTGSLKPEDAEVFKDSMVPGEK
VR1/TRPV1 receptor, sequence (Q8NER1 whole entry): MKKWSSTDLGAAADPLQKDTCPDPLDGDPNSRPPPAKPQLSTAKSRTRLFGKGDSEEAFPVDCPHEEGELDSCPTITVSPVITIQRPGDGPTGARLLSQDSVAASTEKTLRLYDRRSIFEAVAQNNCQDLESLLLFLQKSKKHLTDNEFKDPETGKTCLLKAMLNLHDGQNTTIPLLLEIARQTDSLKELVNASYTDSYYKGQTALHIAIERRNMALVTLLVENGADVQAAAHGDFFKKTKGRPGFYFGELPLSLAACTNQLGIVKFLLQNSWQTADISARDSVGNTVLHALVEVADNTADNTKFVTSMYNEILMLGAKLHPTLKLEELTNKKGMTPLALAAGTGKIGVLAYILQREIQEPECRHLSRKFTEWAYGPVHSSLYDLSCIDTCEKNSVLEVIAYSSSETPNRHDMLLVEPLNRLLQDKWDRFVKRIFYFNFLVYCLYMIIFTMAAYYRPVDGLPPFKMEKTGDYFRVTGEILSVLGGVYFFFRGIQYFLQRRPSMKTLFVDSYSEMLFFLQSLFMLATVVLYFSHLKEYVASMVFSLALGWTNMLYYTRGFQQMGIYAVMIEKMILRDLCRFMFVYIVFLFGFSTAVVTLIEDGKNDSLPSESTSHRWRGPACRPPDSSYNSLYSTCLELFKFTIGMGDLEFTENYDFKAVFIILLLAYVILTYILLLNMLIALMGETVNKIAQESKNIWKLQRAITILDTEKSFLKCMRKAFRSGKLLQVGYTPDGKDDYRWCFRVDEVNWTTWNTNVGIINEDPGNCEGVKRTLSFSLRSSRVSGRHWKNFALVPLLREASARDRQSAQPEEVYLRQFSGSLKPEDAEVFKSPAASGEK
T2 sequence (Q8NER1 whole entry): as above

By Ki is commonly meant a dissociation constant, usually derived from enzyme kinetics or from competition with a known ligand. What is called inhibition is the percentage by which the read-out fell short of the control. Turning to `C[C@H](C(=O)NCc1ccc(C(F)(F)F)nc1-c1ccc(F)c(Cl)c1)c1ccc(NS(C)(=O)=O)c(F)c1` [Example 120, (S)-N-[2-(3-chloro-4-fluoro-phenyl)-6-trifluoromethyl-pyridin-3-ylmethyl]-2-(3-fluoro-4-methylsulfonamido-phenyl)-propionamide], the Ki in test [1] is 0.4 nM; on vanilloid receptor (VR1), 0.7 nM. Moreover, on VR1/TRPV1 receptor (setting [2]), the inhibition at 1 µM was determined as 51%.
In general, IC50 refers to the point on the concentration scale where inhibition reaches its midpoint. For `CC(C(=O)NCc1ccc(C(F)(F)F)nc1N1CCCCCCC1)c1ccc(NS(C)(=O)=O)c(F)c1` (stereo not drawn) [Example 128, N-(2-azocan-1-yl-6-trifluoromethyl-pyridin-3-ylmethyl)-2-(3-fluoro-4-methylsulfonamido-phenyl)-propionamide], the results for the Ki (in test [1]; at vanilloid receptor (VR1)) were 1 nM and 0.7 nM, respectively. Further, on VR1/TRPV1 receptor, half-maximal inhibition (IC50) required 27.8 nM.
As to `CC(C)COc1cc(C(C)(C)C)ccc1CNC(=O)C(C)c1ccc(NS(C)(=O)=O)c(F)c1` (stereo not drawn) [Example 133, N-(4-tert-butyl-2-isobutoxy-benzyl)-2-(3-fluoro-4-methylsulfonamido-phenyl)-propionamide], the figures for the inhibitory constant (Ki) (in test [1]; at vanilloid receptor (VR1)) were 0.7 nM and 2.1 nM, respectively. At VR1/TRPV1 receptor (setting [2]), the inhibition at 1 µM was 62%.
Consider `CC(C(=O)NCc1ccc(C(F)(F)F)nc1N1CCN(C)CC1)c1ccc(NS(C)(=O)=O)c(F)c1` (stereo not drawn) [Example 134, 2-(3-fluoro-4-methylsulfonamido-phenyl)-N-[2-(4-methyl-piperazin-1-yl)-6-trifluoromethyl-pyridin-3-ylmethyl]-propionamide], for which the Ki amounted to 335 nM in test [1] and 146 nM at vanilloid receptor (VR1). Moreover, the inhibition at 25 µM on VR1/TRPV1 receptor (@ 25 μM, read-out: inhibition in percent, IC50 (human) after pH stimulus) was found to be 69%.
As for `Cc1ccc(Nc2nc(C(F)(F)F)ccc2CNC(=O)C(C)c2ccc(NS(C)(=O)=O)c(F)c2)cc1C` (stereo not drawn) [Example 135, N-[2-(3,4-dimethyl-phenylamino)-6-trifluoromethyl-pyridin-3-ylmethyl]-2-(3-fluoro-4-methylsulfonamido-phenyl)-propionamide], the Ki in test [1] amounted to 48.9 nM; on vanilloid receptor (VR1), 39.3 nM. Moreover, at VR1/TRPV1 receptor, the IC50 worked out at 1160 nM.
The like results for `CCCCCc1nc(C(F)(F)F)ccc1CNC(=O)C(C)c1ccc(NS(C)(=O)=O)c(F)c1` (stereo not drawn) [Example 142, 2-(3-fluoro-4-methylsulfonamido-phenyl)-N-(2-pentyl-6-trifluoromethyl-pyridin-3-ylmethyl)-propionamide] were, in that order, 1.2 nM, 1 nM and 8.9 nM.
The like results for `CC(C(=O)NCc1ccc(C(F)(F)F)nc1-c1cccc(Cl)c1)c1ccc(NS(C)(=O)=O)c(F)c1` (stereo not drawn) [Example 149, N-[2-(3-chloro-phenyl)-6-trifluoromethyl-pyridin-3-ylmethyl]-2-(3-fluoro-4-methylsulfonamido-phenyl)-propionamide] were, in that order, 0.7 nM, 0.5 nM and 9.7 nM.
On to `COc1ccc(-c2nc(C(F)(F)F)ccc2CNC(=O)C(C)c2ccc(NS(C)(=O)=O)c(F)c2)cc1` (stereo not drawn) [Example 151, 2-(3-fluoro-4-methylsulfonamido-phenyl)-N-[2-(4-methoxy-phenyl)-6-trifluoromethyl-pyridin-3-ylmethyl]-propionamide], for which the Ki amounted to 1.4 nM in test [1] and 1 nM at vanilloid receptor (VR1). Also, at VR1/TRPV1 receptor, the midpoint of inhibition, the IC50, lay at 92.3 nM.
The matching figures for `CCCCCOc1cc(C(C)(C)C)ccc1CNC(=O)C(C)c1ccc(NS(C)(=O)=O)c(F)c1` (stereo not drawn) [Example 153, N-(4-tert-butyl-2-pentyloxy-benzyl)-2-(3-fluoro-4-methylsulfonamido-phenyl)-propionamide]: 0.7 nM, 2.2 nM and 92.4 nM.
For the compound `CC(C(=O)NCc1ccc(C(C)(C)C)cc1OC1CCCC1)c1ccc(NS(C)(=O)=O)c(F)c1` (stereo not drawn) [Example 155, N-(4-tert-butyl-2-cyclopentyloxy-benzyl)-2-(3-fluoro-4-methylsulfonamido-phenyl)-propionamide], the Ki stood at 0.8 nM in test [1] and 1.8 nM on vanilloid receptor (VR1). At VR1/TRPV1 receptor, this compound registered an IC50 of 145 nM.
